Holding throughout (assay type): cell-based
Conditions in all cases: clinical isolate, Mueller-Hinton broth

Experiment [1] concerns Staphylococcus aureus 100 (MSSA). Put plainly: Broth microdilution MIC, SA 100. Here is the method:
(§1) Antibacterial activity in vitro is investigated by broth microdilution method in Meuller-Hinton broth as recommended by NCCLS. All strains tested are clinical isolates either sensitive or resistant to natural glycopeptides. MIC values were determined using the CLSI-recommended broth microdilution procedure (Clinical and Laboratory Standards Institute, Methods for Dilution Antimicrobial Susceptibility Tests for Bacteria That Grow Aerobically; Approved Standard-Seventh Edition). Automated liquid handlers (Multidrop 384, Labsystems, Helsinki, Finland; Biomek 2000 and Multimek 96, Beckman Coulter, Fullerton Calif.) were used to conduct serial dilutions and liquid transfers.
(Broth dilution looks for growth in wells or tubes with falling amounts of substance.)

Experiment [2] relates to Staphylococcus aureus 757 (MRSA). Put plainly: Broth microdilution MIC, SA 757. As for the experimental part: as §1
Experiment [3] has as its system Staphylococcus aureus 2012 (VISA). Put plainly: Broth microdilution MIC, SA 2012. Here is the method: as §1
In experiment [4] the test system is Staphylococcus epidermidis 835 (MSSE). Put plainly: Broth microdilution MIC, SE 835. Further details: unit not given beside the values. Here is the method: as §1
For experiment [5], the system named is Staphylococcus epidermidis 831 (MRSE). Put plainly: Broth microdilution MIC, SE 831. The arrangement: unit not given beside the values. Here is the method: as §1
For experiment [6], the system named is Enterococcus faecalis 101 (vancomycin sensitive). Put plainly: Broth microdilution MIC, EFC 101. As for the experimental part: as §1
Experiment [7] relates to Enterococcus faecalis 848 (VRE). Put plainly: Broth microdilution MIC, EFC 848. Here is the method: as §1
Experiment [8] relates to Enterococcus faecium 750 (vancomycin sensitive). Put plainly: Broth microdilution MIC, EFCM 750. Here is the method:
as §1

For experiment [9], the system named is Enterococcus faecium 752 (VRE). Put plainly: Broth microdilution MIC, EFCM 752. Here is the method:
as §1

Experiment [10] relates to Streptococcus pneumoniae 1195 (penicillin sensitive). Put plainly: Broth microdilution MIC, SPNE 1195. As for the experimental part: as §1
Experiment [11] concerns Streptococcus pyogenes 712 (penicillin sensitive). Put plainly: Broth microdilution MIC, SPYO 712. Here is the method: as §1

Results on 3 compounds are retold here after patent US20120129763A1, “NOVEL SEMI-SYNTHETIC GLYCOPEPTIDES AS ANTIBACTERIAL AGENTS” (BIOMARIN PHARMACEUTICAL INC., priority 2007, published 2012).

In brackets after ≈: the same amount, converted by molar mass.

`CCCCCCCCNC(=O)NC(=O)C[C@@H]1NC(=O)[C@H](NC(=O)[C@@H](CC(C)C)NC)[C@H](O)c2ccc(c(Cl)c2)Oc2cc3cc(c2OC2OC(CO)C(O)C(O)C2O)Oc2ccc(cc2Cl)[C@@H](O)[C@H]2NC(=O)[C@H](NC(=O)[C@@H]3NC1=O)c1ccc(O)c(c1)-c1c(O)cc(O)cc1[C@@H](C(=O)NC1C3CC4CC(C3)CC1C4)NC2=O` (stereo partly drawn) [Compound 29]: in [1], the MIC, SA 100 is 2 µg/mL (≈ 1.25 µM). Also, the MIC, SA 757 in [2] stood at 1 µg/mL (≈ 0.627 µM). In experiment [3], this compound showed an MIC, SA 2012 of 1 µg/mL (≈ 0.627 µM). Also, in experiment [4], the “MIC, SE 835” value amounted to 1. Further, the “MIC, SE 831” value in experiment [5] is given as 0.5. Besides, the MIC, E FC 101 in [6] is 1 µg/mL (≈ 0.627 µM). For the same compound, the MIC, E FC 848 in [7] came to 2 µg/mL (≈ 1.25 µM). The MIC, E FCM 750 in experiment [8] turned out to be 0.5 µg/mL (≈ 0.314 µM). The compound further had an MIC, E FCM 752 in experiment [9] of 2 µg/mL (≈ 1.25 µM). For the same compound, the MIC, S PNE 1195 in experiment [10] stood at 0.12 µg/mL (≈ 0.0753 µM). The compound also registered an MIC, S PYO 712 in experiment [11] of 0.12 µg/mL (≈ 0.0753 µM).

In experiment [1], `CN[C@H](CC(C)C)C(=O)N[C@H]1C(=O)N[C@@H](CC(=O)NC(=O)N[C@@H](C)c2ccccc2)C(=O)N[C@H]2C(=O)N[C@@H]3C(=O)N[C@H](C(=O)N[C@H](C(=O)NC4C5CC6CC(C5)CC4C6)c4cc(O)cc(O)c4-c4cc3ccc4O)[C@H](O)c3ccc(c(Cl)c3)Oc3cc2cc(c3OC2O[C@H](COC(=O)N[C@@H](C)c3ccccc3)[C@@H](O)[C@H](O)[C@H]2O)Oc2ccc(cc2Cl)[C@H]1O` (stereo partly drawn) [Compound 75] came in with an MIC, SA 100 of 4 µg/mL (≈ 2.31 µM). The same compound displayed an MIC, SA 757 in [2] of 2 µg/mL (≈ 1.15 µM). The MIC, SA 2012 in experiment [3] worked out at 4 µg/mL (≈ 2.31 µM). Also, in experiment [4], the “MIC, SE 835” value amounted to 2. Besides, in experiment [5], the “MIC, SE 831” value was 1. This compound also had an MIC, E FC 101 in experiment [6] of 2 µg/mL (≈ 1.15 µM). In addition, in experiment [7], the MIC, E FC 848 was 2 µg/mL (≈ 1.15 µM). In experiment [8], the MIC, E FCM 750 was 0.5 µg/mL (≈ 0.288 µM). This compound came in with an MIC, E FCM 752 in [9] of 2 µg/mL (≈ 1.15 µM). The compound further showed an MIC, S PNE 1195 in [10] of 1 µg/mL (≈ 0.577 µM). For the same compound, in [11], the MIC, S PYO 712 turned out to be 0.25 µg/mL (≈ 0.144 µM).

As to `CN[C@H](CC(C)C)C(=O)N[C@H]1C(=O)N[C@@H](CC(=O)NC(=O)N[C@@H](C)c2ccccc2)C(=O)N[C@H]2C(=O)N[C@@H]3C(=O)N[C@H](C(=O)N[C@H](C(=O)NC4C5CC6CC(C5)CC4C6)c4cc(O)cc(O)c4-c4cc3ccc4O)[C@H](O)c3ccc(c(Cl)c3)Oc3cc2cc(c3OC2O[C@H](CO)[C@@H](O)[C@H](O)[C@H]2O)Oc2ccc(cc2Cl)[C@H]1O` (stereo partly drawn) [Compound 76], the MIC, SA 100 in [1] was 2 µg/mL (≈ 1.26 µM). This compound had an MIC, SA 757 in [2] of 2 µg/mL (≈ 1.26 µM). In experiment [3], this compound returned an MIC, SA 2012 of 4 µg/mL (≈ 2.52 µM). Further, in experiment [4], the “MIC, SE 835” value was found to be 1. The “MIC, SE 831” value in [5] turned out to be 1. Further, in [6], the MIC, E FC 101 is 2 µg/mL (≈ 1.26 µM). Further, in [7], the MIC, E FC 848 is 8 µg/mL (≈ 5.04 µM). Also, the MIC, E FCM 750 in experiment [8] was determined as 0.5 µg/mL (≈ 0.315 µM). This compound also returned an MIC, E FCM 752 in [9] of 8 µg/mL (≈ 5.04 µM). Further, in experiment [10], the MIC, S PNE 1195 was found to be 0.25 µg/mL (≈ 0.158 µM). In [11], the MIC, S PYO 712 came out at 0.06 µg/mL (≈ 0.0378 µM).
